Test results from patent US20260324639A1, “MICROBIOCIDAL PYRAZOLE DERIVATIVES” (SYNGENTA CROP PROTECTION AG, priority 2022, published 2026).

Legend:
Monographella nivalis = Monographella nivalis (Microdochium nivale)/liquid culture (foot rot cereals); type: cell-based; settings: liquid culture, PDB, 24° C., growth inhibition photometric 4-5 days after application, read-out: control of Monographella nivalis compared to untreated control
Protocol: (§1) Conidia of the fungus from cryogenic storage are directly mixed into nutrient broth (PDB potato dextrose broth). After placing a (DMSO) solution of test compound into a microtiter plate (96-well format), the nutrient broth containing the fungal spores is added. The test plates are incubated at 24° C. and the inhibition of growth is determined photometrically 4-5 days after application.

Phaeosphaeria nodorum = Phaeosphaeria nodorum (Septoria nodorum)/wheat/leaf disc preventative (glume blotch); type: in vivo; settings: 200 ppm, wheat leaf segments cv. Kanzler, inoculated 2 days after application, assessed 5-7 days after application
Protocol: (§2) Wheat leaf segments cv. Kanzler are placed on agar in a multiwell plate (24-well format) and sprayed with the formulated test compound diluted in water. The leaf disks are inoculated with a spore suspension of the fungus 2 days after application. The inoculated test leaf disks are incubated at 20° C. and 75% rh under a light regime of 12 h light/12 h darkness in a climate cabinet and the activity of a compound is assessed as percent disease control compared to untreated when an appropriate level of disease damage appears in untreated check leaf disks (5-7 days after application).

[1] = test system: Blumeria graminis f. sp. tritici; experiment: Blumeria graminis f. sp. tritici/wheat/leaf disc preventative (powdery mildew on wheat); type: in vivo; settings: 200 ppm, wheat leaf segments cv. Kanzler, inoculated 1 day after application, assessed 6-8 days after application
Protocol: Wheat leaf segments cv. Kanzler are placed on agar in a multiwell plate (24-well format) and sprayed with the formulated test compound diluted in water. The leaf disks are inoculated by shaking powdery mildew infected plants above the test plates 1 day after application. The inoculated leaf disks are incubated at 20° C. and 60% rh under a light regime of 24 h darkness followed by 12 h light/12 h darkness in a climate chamber and the activity of a compound is assessed as percent disease control compared to untreated when an appropriate level of disease damage appears on untreated check leaf segments (6-8 days after application).

Botryotinia fuckeliana = Botryotinia fuckeliana (Botrytis cinerea)/liquid culture (gray mould); type: cell-based; settings: liquid culture, Vogels broth, 24° C., growth inhibition photometric 3-4 days after application, read-out: control of Botryotinia fuckeliana compared to untreated control
Protocol: as §1, with “(Vogels” for “(PDB potato dextrose”, “3-4” for “4-5”

Pyrenophora teres = experiment: Pyrenophora teres/barley/leaf disc preventative (net blotch); type: in vivo; settings: 200 ppm, barley leaf segments cv. Hasso, inoculated 2 days after application, assessed 5-7 days after application
Protocol: as §2, with “Barley” for “Wheat”, “Hasso” for “Kanzler”, “segments” for “disks”, “inoculated” for “inoculated test”, “65%” for “75%”, “as” for “as percent”

Alternaria solani = experiment: Alternaria solani/tomato/leaf disc (early blight); type: in vivo; settings: 200 ppm; tomato leaf disks cv. Baby; inoculated 2 days after application; assessed 5-7 days after application
Protocol: Tomato leaf disks cv. Baby are placed on agar in multiwell plates (24-well format) and sprayed with the formulated test compound diluted in water. The leaf disks are inoculated with a spore suspension of the fungus 2 days after application. The inoculated leaf disks are incubated at 23° C./21° C. (day/night) and 80% rh under a light regime of 12/12 h (light/dark) in a climate cabinet and the activity of a compound is assessed as percent disease control compared to untreated when an appropriate level of disease damage appears on untreated check disk leaf disks (5-7 days after application).

Glomerella lagenarium = Glomerella lagenarium (Colletotrichum lagenarium)/liquid culture (anthracnose); type: cell-based; settings: Colletotrichum orbiculare, liquid culture, PDB, 24° C., growth inhibition photometric 3-4 days after application, read-out: control of Glomerella lagenarium compared to untreated control
Protocol: as §1, with “measured” for “determined”, “3-4” for “4-5”

Fusarium culmorum = experiment: microbe, parasite or virus in culture; type: cell-based; settings: read-out: control of Fusarium culmorum compared to untreated control
Protocol: as §1, with “3-4” for “4-5”

Mycosphaerella arachidis = Mycosphaerella arachidis (Cercospora arachidicola)/liquid culture (early leaf spot); type: cell-based; settings: liquid culture, PDB, 24° C., growth inhibition photometric 4-5 days after application, read-out: control of Mycosphaerella arachidis compared to untreated control
Protocol: as §1

[2] = test system: Mycosphaerella graminicola; experiment: Mycosphaerella graminicola (Septoria tritici)/liquid culture (Septoria blotch); type: cell-based; settings: Zymoseptoria tritici, liquid culture, PDB, 24° C., growth inhibition photometric 4-5 days after application, read-out: control of Mycosphaerella graminicola compared to untreated control
Protocol: as §1

[3] = test system: Puccinia recondita f. sp. tritici; experiment: Puccinia recondita f. sp. tritici/wheat/leaf disc preventative (brown rust); type: in vivo; settings: 200 ppm, inoculated 1 day after application, wheat leaf segments cv. Kanzler, assessed 7-9 days after application
Protocol: Wheat leaf segments cv. Kanzler are placed on agar in multiwell plates (24-well format) and sprayed with the formulated test compound diluted in water. The leaf disks are inoculated with a spore suspension of the fungus 1 day after application. The inoculated leaf segments are incubated at 19° C. and 75% rh under a light regime of 12 h light/12 h darkness in a climate cabinet and the activity of a compound is assessed as percent disease control compared to untreated when an appropriate level of disease damage appears in untreated check leaf segments (7-9 days after application).

Sclerotinia sclerotiorum = experiment: Sclerotinia sclerotiorum/liquid culture (cottony rot); type: cell-based; settings: liquid culture (mycelia fragments), PDB, 24° C., growth inhibition photometric 3-4 days after application, read-out: control of Sclerotinia sclerotiorum compared to untreated control
Protocol: as §1, with “Mycelia fragments of a newly grown liquid culture” for “Conidia”, “fungus” for “fungus from cryogenic storage”, “format)” for “format),”, “material” for “spores”, “3-4” for “4-5”

Row | SMILES | inhibition of growth at 20 ppm (Monographella nivalis) | control of Phaeosphaeria nodorum compared to untreated control (Phaeosphaeria nodorum) | control of Blumeria graminis f. sp. tritici compared to untreated control [1] | inhibition of growth at 20 ppm (Botryotinia fuckeliana) | control of Pyrenophora teres compared to untreated control (Pyrenophora teres) | control of Alternaria solani compared to untreated control (Alternaria solani) | inhibition of growth at 20 ppm (Glomerella lagenarium) | inhibition of growth at 20 ppm (Fusarium culmorum) | inhibition of growth at 20 ppm (Mycosphaerella arachidis) | inhibition of growth at 20 ppm [2] | control of Puccinia recondita f. sp. tritici compared to untreated control [3] | inhibition of growth at 20 ppm (Sclerotinia sclerotiorum)
1 | C[C@H]1c2ccccc2[C@@H](c2cnn(C)c2Cl)CN1C(=O)c1cn(-c2ncc(F)cc2F)nn1 (racemic) [Compound P-53, [1-(3,5-difluoro-2-pyridyl)triazol-4-yl]-[rac-(1S,4S)-4-(5-chloro-1-methyl-pyrazol-4-yl)-1-methyl-3,4-dihydro-1H-isoquinolin-2-yl]methanone] | ≥ 80% | at least 80% | at least 80% | ≥ 80% | at least 80% | at least 80% | ≥ 80% | ≥ 80% | ≥ 80% | ≥ 80% |  | 
2 | COc1ccc2c(c1)[C@@H](c1cnn(C)c1)CN(C(=O)c1nnn(-c3ccccc3)n1)[C@H]2C (single isomer, unassigned) [Compound P-37] | ≥ 80% | at least 80% | at least 80% | ≥ 80% | at least 80% |  |  |  | ≥ 80% | ≥ 80% | at least 80% | 
3 | Cc1c([C@H]2CN(C(=O)c3cn(-c4ncc(F)cc4F)nn3)[C@@H](C)c3ccccc32)cnn1C [Compound P-43, [1-(3,5-difluoro-2-pyridyl)triazol-4-yl]-[(1S,4S)-4-(1,5-dimethylpyrazol-4-yl)-1-methyl-3,4-dihydro-1H-isoquinolin-2-yl]methanone] | ≥ 80% | at least 80% | at least 80% | ≥ 80% | at least 80% | at least 80% | ≥ 80% | ≥ 80% | ≥ 80% | ≥ 80% |  | 
4 | C[C@H]1c2ccccc2[C@@H](c2cnn(C)c2Cl)CN1C(=O)c1cn(-c2ccc(F)cc2F)nn1 [Compound P-48, [(1S,4S)-4-(5-chloro-1-methyl-pyrazol-4-yl)-1-methyl-3,4-dihydro-1H-isoquinolin-2-yl]-[1-(2,4-difluorophenyl)triazol-4-yl]methanone] | ≥ 80% | at least 80% | at least 80% | ≥ 80% | at least 80% | at least 80% | ≥ 80% | ≥ 80% | ≥ 80% | ≥ 80% |  | ≥ 80%
5 | C[C@H]1c2ccccc2[C@@H](c2cnn(C)c2Cl)CN1C(=O)c1nnn(-c2ccc(F)cc2F)n1 [Compound P-49, [(1S,4S)-4-(5-chloro-1-methyl-pyrazol-4-yl)-1-methyl-3,4-dihydro-1H-isoquinolin-2-yl]-[2-(2,4-difluorophenyl)tetrazol-5-yl]methanone] | ≥ 80% | at least 80% | at least 80% | ≥ 80% | at least 80% | at least 80% | ≥ 80% |  | ≥ 80% | ≥ 80% | at least 80% | 
6 | C[C@H]1c2ccccc2[C@@H](c2cnn(C)c2)CN1C(=O)c1cn(-c2ncc(F)cc2F)nn1 [Compound P-51, [1-(3,5-difluoro-2-pyridyl)triazol-4-yl]-[(1S,4S)-1-methyl-4-(1-methylpyrazol-4-yl)-3,4-dihydro-1H-isoquinolin-2-yl]methanone] | ≥ 80% | at least 80% | at least 80% | ≥ 80% | at least 80% | at least 80% | ≥ 80% |  | ≥ 80% | ≥ 80% |  | 
7 | Cc1c(C2CN(C(=O)c3cn(-c4ccc(F)cc4F)nn3)Cc3ccccc32)cnn1C (stereo not shown) [Compound P-56, [1-(2,4-difluorophenyl)triazol-4-yl]-[4-(1,5-dimethylpyrazol-4-yl)-3,4-dihydro-1H-isoquinolin-2-yl]methanone] | ≥ 80% | at least 80% | at least 80% | ≥ 80% | at least 80% | at least 80% | ≥ 80% |  | ≥ 80% | ≥ 80% |  | 
